Measurements from US4861865A, “Novel antithrombin peptide” (Washington University, priority 1989, dated 1989).

Biological target: T1, human thrombin (Homo sapiens, UniProt P00734)
T1 construct: human thrombin, bovine thrombin, and Ancrod; purchased Sigma Chemical
Experiment: Fibrinogen clotting assay (fibrometer) with thrombin
Type: biochemical
Details: final concentration of 10 U/ml
Protocol: Fibrinogen clotting times (S=seconds) in the presence of varying concentrations (μM) of the peptide were determined with a fibrometer following addition of thrombin. Each concentration of peptide was assayed in triplicate. Error bars indicate standard deviations.
All reagents were equilibrated to 37° C. before mixing.

effect on clotting time: no effect on clotting time
Substance: Heparin
